Reference: ChEMBL document CHEMBL5512680, “Design, Synthesis, and Biological Evaluation of New 2,6,7-Substituted Purine Derivatives as Toll-like Receptor 7 Agonists for Intranasal Vaccine Adjuvants” (J Med Chem, 2024)
Calls of active or inactive are those of the source. The calls are words filed in the database; no cut-off is given here.

How the values were obtained:
[1] = target: T1, Toll-like receptor 7 (Homo sapiens, UniProt Q9NYK1); experiment: Agonist activity at TLR7 (unknown origin)
T1 sequence (Q9NYK1 whole entry): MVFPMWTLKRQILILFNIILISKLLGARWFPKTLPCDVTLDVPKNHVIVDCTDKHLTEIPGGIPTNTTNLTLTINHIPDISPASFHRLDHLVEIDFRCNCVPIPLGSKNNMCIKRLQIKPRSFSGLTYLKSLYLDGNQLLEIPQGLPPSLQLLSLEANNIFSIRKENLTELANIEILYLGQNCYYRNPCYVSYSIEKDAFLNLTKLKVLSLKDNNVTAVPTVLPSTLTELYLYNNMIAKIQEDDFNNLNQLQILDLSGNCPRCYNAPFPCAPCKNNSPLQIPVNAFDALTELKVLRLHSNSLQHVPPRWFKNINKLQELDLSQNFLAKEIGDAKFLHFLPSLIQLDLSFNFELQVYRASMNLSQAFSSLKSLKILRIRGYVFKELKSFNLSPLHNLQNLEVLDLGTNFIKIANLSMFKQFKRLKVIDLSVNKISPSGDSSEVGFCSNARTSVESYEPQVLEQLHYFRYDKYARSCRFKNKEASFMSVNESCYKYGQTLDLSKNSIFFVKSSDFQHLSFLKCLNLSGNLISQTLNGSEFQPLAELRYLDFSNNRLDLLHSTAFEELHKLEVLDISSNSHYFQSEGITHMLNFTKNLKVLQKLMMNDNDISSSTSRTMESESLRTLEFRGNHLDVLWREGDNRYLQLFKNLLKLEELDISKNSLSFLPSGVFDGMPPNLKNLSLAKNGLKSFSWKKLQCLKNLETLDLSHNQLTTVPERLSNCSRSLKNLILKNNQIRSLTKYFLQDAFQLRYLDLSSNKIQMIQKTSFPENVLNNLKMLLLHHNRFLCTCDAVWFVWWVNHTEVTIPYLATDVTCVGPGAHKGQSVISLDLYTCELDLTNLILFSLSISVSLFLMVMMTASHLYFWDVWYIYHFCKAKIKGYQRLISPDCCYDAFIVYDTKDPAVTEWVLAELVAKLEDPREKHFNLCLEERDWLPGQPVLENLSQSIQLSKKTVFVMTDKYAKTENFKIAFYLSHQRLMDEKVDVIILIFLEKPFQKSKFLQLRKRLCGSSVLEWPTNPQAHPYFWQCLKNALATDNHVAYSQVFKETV

[2] = target: T1, Toll-like receptor 7; experiment: Agonist activity at human TLR7 expressed in HEK-blue TLR cells measured for 18 to 19 hrs by SEAP reporter gene based assay; assay type: cell-based
[3] = target: T2, Toll-like receptor 8 (Homo sapiens, UniProt Q9NR97); experiment: Agonist activity at human TLR8 expressed in HEK-blue TLR cells measured for 18 to 19 hrs by SEAP reporter gene based assay; assay type: cell-based
T2 sequence (Q9NR97 whole entry): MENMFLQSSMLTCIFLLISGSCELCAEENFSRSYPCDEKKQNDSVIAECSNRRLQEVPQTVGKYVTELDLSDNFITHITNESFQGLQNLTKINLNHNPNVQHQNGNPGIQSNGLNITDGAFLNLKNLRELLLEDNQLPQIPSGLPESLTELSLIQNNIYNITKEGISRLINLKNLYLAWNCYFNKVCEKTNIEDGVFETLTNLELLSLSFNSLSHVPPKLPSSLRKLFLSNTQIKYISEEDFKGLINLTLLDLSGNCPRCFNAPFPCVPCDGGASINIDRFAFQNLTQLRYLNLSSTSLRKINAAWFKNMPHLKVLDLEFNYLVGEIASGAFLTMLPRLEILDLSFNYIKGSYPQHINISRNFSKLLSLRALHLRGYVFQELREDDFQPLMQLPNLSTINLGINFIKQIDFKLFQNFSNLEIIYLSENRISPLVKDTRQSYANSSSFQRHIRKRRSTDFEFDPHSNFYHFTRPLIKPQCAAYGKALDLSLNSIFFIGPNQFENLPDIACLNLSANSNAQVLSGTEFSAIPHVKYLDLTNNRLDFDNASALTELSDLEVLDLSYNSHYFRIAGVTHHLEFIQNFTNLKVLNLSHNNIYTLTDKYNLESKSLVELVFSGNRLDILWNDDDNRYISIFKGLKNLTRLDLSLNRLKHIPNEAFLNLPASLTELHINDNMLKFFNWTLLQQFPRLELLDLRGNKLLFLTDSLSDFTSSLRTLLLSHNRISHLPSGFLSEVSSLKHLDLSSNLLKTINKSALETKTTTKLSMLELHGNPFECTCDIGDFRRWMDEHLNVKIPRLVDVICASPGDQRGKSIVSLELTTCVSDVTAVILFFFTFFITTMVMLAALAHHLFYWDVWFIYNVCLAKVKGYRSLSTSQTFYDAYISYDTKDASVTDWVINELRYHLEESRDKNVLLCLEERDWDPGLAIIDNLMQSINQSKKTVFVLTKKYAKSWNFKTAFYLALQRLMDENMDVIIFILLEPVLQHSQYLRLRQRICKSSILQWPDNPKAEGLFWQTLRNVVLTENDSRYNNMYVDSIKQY

[4] = target: T3, Toll-like receptor 7 (Mus musculus, UniProt P58681); experiment: Agonist activity at mouse TLR7 expressed in HEK293 cells co-expressing NF-kappaB/AP-1 inducible SEAP reporter gene measured for 24 hrs by colorimetric analysis; assay type: cell-based
T3 sequence (P58681 whole entry): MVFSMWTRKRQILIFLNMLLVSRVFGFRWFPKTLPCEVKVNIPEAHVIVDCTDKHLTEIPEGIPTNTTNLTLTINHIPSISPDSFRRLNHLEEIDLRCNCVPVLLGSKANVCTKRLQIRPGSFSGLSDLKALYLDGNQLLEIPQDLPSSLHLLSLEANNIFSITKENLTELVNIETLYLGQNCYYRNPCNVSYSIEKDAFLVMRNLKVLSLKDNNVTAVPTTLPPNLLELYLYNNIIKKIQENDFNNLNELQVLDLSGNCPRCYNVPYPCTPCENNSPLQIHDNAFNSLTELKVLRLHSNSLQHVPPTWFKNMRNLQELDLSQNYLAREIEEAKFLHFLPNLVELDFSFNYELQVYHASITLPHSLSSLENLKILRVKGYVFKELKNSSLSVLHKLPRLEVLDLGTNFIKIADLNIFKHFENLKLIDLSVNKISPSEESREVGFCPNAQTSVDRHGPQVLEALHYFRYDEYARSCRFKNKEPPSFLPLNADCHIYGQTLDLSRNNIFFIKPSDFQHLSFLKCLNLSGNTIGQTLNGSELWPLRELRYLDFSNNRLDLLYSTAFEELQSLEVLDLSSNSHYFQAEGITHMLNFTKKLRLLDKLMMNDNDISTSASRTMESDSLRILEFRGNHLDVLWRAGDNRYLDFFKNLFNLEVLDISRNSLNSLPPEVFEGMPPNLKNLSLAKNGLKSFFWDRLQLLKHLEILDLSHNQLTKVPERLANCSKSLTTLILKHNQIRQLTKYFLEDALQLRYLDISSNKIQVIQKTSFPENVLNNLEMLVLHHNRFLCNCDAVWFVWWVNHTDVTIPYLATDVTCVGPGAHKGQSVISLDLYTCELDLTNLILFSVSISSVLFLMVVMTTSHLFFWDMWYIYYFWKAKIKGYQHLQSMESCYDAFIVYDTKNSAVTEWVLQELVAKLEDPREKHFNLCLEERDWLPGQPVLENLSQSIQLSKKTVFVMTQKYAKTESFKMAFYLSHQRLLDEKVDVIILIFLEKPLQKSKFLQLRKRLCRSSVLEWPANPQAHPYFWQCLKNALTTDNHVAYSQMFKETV

[5] = tested on: Mus musculus; experiment: In-vivo protection against influenza A virus PR8 (A/H1N1) infection in immunocompetent BALB/c mouse model assessed as animal survival rate at 1 ug pretreated with compound for 3 weeks followed by viral infection and measured daily for 2 weeks; assay type: functional; settings: dose 1 µg; time 5 weeks
[6] = organism: Mus musculus; experiment: Immunostimulatory activity in BALB/c mouse vaccinated with inactivated PR8 (A/H1N1) assessed as animal survival at 1 ug measured 3 weeks after immunization; assay type: functional; settings: dose 1 µg
[7] = organism: Mus musculus; experiment: Immunostimulatory activity in BALB/c mouse vaccinated with inactivated PR8 (A/H1N1) assessed as animal survival at 0.01 ug measured 3 weeks after immunization; assay type: functional; settings: dose 0.01 µg
[8] = organism: Mus musculus; experiment: Immunostimulatory activity in BALB/c mouse vaccinated with inactivated PR8 (A/H1N1) assessed as animal survival at 0.1 ug measured 3 weeks after immunization; assay type: functional; settings: dose 0.1 µg
[9] = tested on: Mus musculus; experiment: In-vivo protection against influenza A virus PR8 (A/H1N1) infection in immunocompetent BALB/c mouse model assessed as animal survival rate at 0.01 ug pretreated with compound for 3 weeks followed by viral infection and measured daily for 2 weeks; assay type: functional; settings: dose 0.01 µg; time 5 weeks
[10] = organism: Mus musculus; experiment: Immunostimulatory activity in BALB/c mouse vaccinated with inactivated PR8 (A/H1N1) assessed as decrease in body weight at 1 ug measured 3 weeks after immunization; assay type: functional, organism-based; settings: dose 1.0 µg
[11] = In-vivo activation of mouse TLR7-mediated innate immune response in immunocompetent BALB/c mouse vaccinated with inactivated influenza A virus H1N1 A/Puerto Rico/8/1934 assessed as fold increase in IgG2a level in serum at 1 ug measured 3 weeks after immunization in presence of N6-butyl-7-(4-((diethylamino)methyl)-2-methoxybenzyl)-7H-purine-2,6-diamine by ELISA analysis; assay type: functional; settings: dose 1 µg
[12] = target: T4, Toll-like receptor 7 (Mus musculus) (UniProt P58681); experiment: Agonist activity at mouse TLR7 expressed in HEK293 cells co-expressing NF-kappaB/AP-1 inducible SEAP reporter gene at 33 uM measured for 24 hrs by colorimetric analysis relative to control; assay type: cell-based
T4 sequence (whole entry): T3 sequence (P58681 whole entry)

## CC(C)Cn1cnc2c(N)nc3ccccc3c21 [IMIQUIMOD]
[1]
  EC50: 202 nM

## CCCCNc1nc(N)nc2ncn(Cc3ccc(CN4CCCCC4)cc3OC)c12
[2]
  EC50: 20.5 nM

## CCCN(CCC)C(=O)C1=Cc2ccc(-c3ccc(C(=O)N4CCCC4)cc3)cc2N=C(N)C1 [MOTOLIMOD]
[3]
  EC50: 83.2 nM

## COc1cc(CO)ccc1Cn1cnc2nc(N)nc(NCc3ccccc3)c21
[2]
  EC50: 2800 nM

## CCOCc1nc2c(N)nc3ccccc3c2n1CC(C)(C)C
[4]
  EC50: 299 nM

## CCCCNc1nc(N)nc2ncn(Cc3ccc(CN4CCNCC4)cc3OC)c12
[2]
  EC50: 169 nM

## CCCCNc1nc(N)nc2ncn(Cc3ccc(CN(CC)CC)cc3OC)c12
[5]
  Survival: 100%
[4]
  EC50: 41.7 nM
[6]
  Survival: 66.7%
[7]
  Survival: 16.7%
[8]
  Survival: 33.3%
[2]
  EC50: 17.5 nM
[9]
  Survival: 16.7%

## CCCCNc1nc(N)nc2ncn(Cc3ccc(CN4CCN(C)CC4)cc3OC)c12
[3]; hek-blue tlr
  EC50: < 10000 nM
[2]
  EC50: 24.7 nM

## CCCCNc1nc(N)nc2ncn(Cc3ccc(CN(C)C)cc3OC)c12
[2]
  EC50: 29.7 nM

## CCCCOc1nc(N)c2c(n1)N(Cc1cccc(CN3CCCC3)c1)CC(=O)N2 [VESATOLIMOD]
[4]
  EC50: 4570 nM
[10]
  Activity: Active
[11]
  fold change (FC): 5.2
[12]
  Emax: 0.657%
